The values that follow come from patent US20120088737A2, “NOVEL ACYL GUANIDINE DERIVATIVES” (AJINOMOTO CO., INC, priority 2009, published 2012).

One data set concerns the target T1, NHE1 (Homo sapiens, UniProt P19634).
T1 construct: HLF cells (Human hepatoma cell line) were used as cells for the test; endogenous in cells; host or cells: HLF cells (human hepatoma cell line)
The data set is described as follows: Measurements of NHE1 inhibitory activities (HLF cells, BCECF pH recovery). Format: cell-based. The settings on record: HLF cells (human hepatoma cell line), measured after 10 minutes; read-out: hNHE1 IC50. The procedure: Pharmacological Test Example 1: Measurements of NHE1 Inhibitory Activities
(§1) HLF cells (Human hepatoma cell line) were used as cells for the test. After 1×10^4 cells/well were seeded to a 96-well plate and cultured for 3 days, they were cultured overnight under a serum-free medium. Then, the cells were incubated in a stain solution of Tetramethylammonium (TMA) Buffer (130 mM TMA-C1, 5 mM KCl, 2 mM CaCl2, 1 mM MgSO2, 25 mM glucose, 20 mM HEPES; pH 7.4) containing 40 mM NH4Cl and 1 μg/mL pH-sensitive fluorescent indicator BCECF-AM at 37° C. for 40 minutes and then BCECF was introduced into the cells. After the cells were washed once with TMA Buffer and incubated in TMA+40 mM NH4Cl solution at 37° C. for 15 minutes, the solution was removed and 20 μL/well of TMA Buffer and 10 μL/well of each test compound solution prepared with TMA Buffer were added to each well. The measurements were carried out by adding 200 μL/well of Na Buffer (130 mM, NaCl, 5 mM KCl, 2 mM CaCl2, 1 mM MgSO2, 1 mM NaH2PO4, 25 mM glucose, 20 mM HEPES; pH 7.4) or TMA Buffer (for base measurement), immediately placing it on FlexStation (Molecular Device) and then, after 10 minutes, measuring, it the two wavelengths of 505 nm (excitation wavelength)/530 nm (emission wavelength) (measurement value) and 440 nm (excitation wavelength)/530 nm (emission wavelength) (isosbestic point value). A NHE activity was calculated by dividing a measurement value by an isosbestic point value and a NHE1 inhibitory activity was calculated by the following equation. NHE1 inhibitory activity (%)=100×(1−(Measurement value [addition of each compound]−Base [addition of TMA Buffer])/(Control [addition of Na Buffer]−Base [addition of TMA Buffer]))

Data set [1] has as its target T2, human NHE3 (Homo sapiens, UniProt P48764).
T2 construct: expressed in transfected cells; host or cells: OK26 cells (opossum kidney OK cells); OK26 ND sublines with opNHE1 reduced by 90% for A3
T2 sequence (P48764 26-834): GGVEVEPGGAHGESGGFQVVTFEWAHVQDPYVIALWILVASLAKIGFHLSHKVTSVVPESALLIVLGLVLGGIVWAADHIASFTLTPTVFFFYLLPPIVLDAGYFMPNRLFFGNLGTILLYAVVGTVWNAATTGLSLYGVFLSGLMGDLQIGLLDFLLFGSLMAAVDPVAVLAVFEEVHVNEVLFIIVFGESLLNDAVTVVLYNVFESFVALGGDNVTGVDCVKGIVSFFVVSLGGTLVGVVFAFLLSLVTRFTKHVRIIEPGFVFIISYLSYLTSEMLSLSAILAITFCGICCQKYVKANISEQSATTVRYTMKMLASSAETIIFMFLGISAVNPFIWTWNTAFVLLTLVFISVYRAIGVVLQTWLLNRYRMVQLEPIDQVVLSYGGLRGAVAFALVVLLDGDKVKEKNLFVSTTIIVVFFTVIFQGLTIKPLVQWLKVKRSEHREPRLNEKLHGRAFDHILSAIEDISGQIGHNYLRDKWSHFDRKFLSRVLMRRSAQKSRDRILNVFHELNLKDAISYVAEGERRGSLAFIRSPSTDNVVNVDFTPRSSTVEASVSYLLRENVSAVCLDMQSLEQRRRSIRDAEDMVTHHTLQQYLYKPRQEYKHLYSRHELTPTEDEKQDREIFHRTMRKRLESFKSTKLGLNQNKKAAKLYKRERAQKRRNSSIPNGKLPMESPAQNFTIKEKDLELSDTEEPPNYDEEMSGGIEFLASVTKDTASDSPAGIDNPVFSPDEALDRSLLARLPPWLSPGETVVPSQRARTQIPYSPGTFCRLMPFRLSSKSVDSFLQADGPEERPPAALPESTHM
Briefly: Measurements of NHE3 inhibitory activities (OK26 cells). Format: cell-based. The settings on record: OK26 cells (opossum kidney cells overexpressing human NHE3), measurement time 5 minutes at 37° C.; read-out: hNHE3 IC50. The procedure: as §1
Pharmacological Test Example 2: Measurements of NHE3 Inhibitory Activities.
OK26 cells (OK (opossum kidney) cells in which human NHE3 genes are overexpressed) were used as cells for the test. The measurements were carried out in the same manner as described in Pharmacological Test Example 1 except that the measurement time was 5 minutes (at 37° C.) to calculate NHE3 inhibitory activities.

For data set [2], the target named is T2, human NHE3. Briefly: Improved version of measurements of NHE3 inhibitory activities (OK26 ND cell lines). Particulars: OK26 ND cell lines (opNHE1 expression reduced by 90%), measurement time 8 minutes at 26° C.; read-out: hNHE3 IC50. Format: cell-based. The procedure:
Pharmacological Test Example 3: Improved Version of Measurements of NHE3 Inhibitory Activities
OK26 cells express endogeneous NHE1 (opNHE1). In order to evaluate NHE3 inhibitory activities more precisely, OK26 ND cell lines in which the expression level of opNHE1 is reduced by 90% were established. Measurements of NEE inhibitory activities were carried out by using the established cell lines in the same manner as described in Pharmacological Test Example 1 except that the measurement time was 8 minutes (at 26° C.) to calculate more precise NHE3 inhibitory activities.

Data set [3] can be described thus: MDCK membrane permeability (trans-well). It is filed as in vitro ADME, Canine. Particulars: dog, apical pH 6.5 / basal pH 7.4, 37° C. The procedure:
Pharmacological Test Example 4: MDCK Membrane Permeability
1×10^6 MDCK (MADIN-DARBY Canine Kidney) cells were seeded to each well and cultivated on a trans-well for 4 days (Mixed medium; DMEM: F12=1:1). The trans-well consists of a upper chamber into which cells are seeded and a lower chamber which is separated by a porous membrane and each test compound added into the upper chamber penetrates through the porous membrane to be detected in the lower chamber. The trans-well system has been used as a model for cell membrane permeability.
Buffer solution (pH 6.5) (138 mM NaCl, 2.7 mM KCl, 25 mM D-Glucose, 20 mM MES, 1.25 mM CaCl2, 0.5 mM MgCl2; pH was adjusted with KOH) was added into the upper chamber (Apical side) while Buffer solution (pH 7.4) (138 mM NaCl, 2.7 mM KCl, 25 mM D-Glucose, 20 mM HEPES, 1.25 mM CaCl2, 0.5 mM MgCl2; pH was adjusted with KOH) was added into the lower chamber (basal side). After it was pre-incubated at 37° C. for 20 minutes, 50 μM of each test compound was added thereto and then reacted at 37° C. for 1 hour. The solutions in the upper and lower chambers were collected and the concentrations of each test compound were determined by LC/MS to calculate membrane permeability values (Pm values) by the following equation. Pm[cm/sec]=(Concentration of each test compound in the basal side×1.5 mL)/(3600 sec×1.12 cm^2×Initial concentration of the added compound)

In data set [4] the test system is renal dysfunction model rats. The data set is described as follows: Continuous administration test in renal dysfunction model rats. It is filed as in vivo, Wistar rats. The procedure: Pharmacological Test Example 5: Continuous Administration Test in Renal Dysfunction Model Rats
After unilateral nephrectomy was performed on 7-week-old Wistar rats and the rats were habituated for 1 week, they were divided into 4 groups based on their body weights, Normal group, Vehicle group, 20 mg/kg of the compound of Example 7-administered group and 50 mg/kg of the compound of Example 7-administered group were assigned to 5 rats, respectively. After the rats were habituated in metabolic cages for 4 days, the test compound the compound of Example 7) dissolved in 0.5% methylcellulose solution was administered via gavage simultaneously with intraperitoneal administration of oleic acid-containing bovine serum albumin (OA-BSA) at a dose of 2 g/animal once daily for 4 days. Vehicles (0.5% methylcellulose solution) were administered to Normal group and Vehicle group instead of the test compound (the compound of Example 7). In addition, no oleic acid-containing bovine serum albumin was administered to Normal group and only unilateral nephrectomy was performed on the Normal group rats. Urine samples were collected from each rat on the last administration day to the next day of the last administration, and blood sampling and autopsy were conducted on the same day.

[5] abbreviates: test compound-administered groups (20 and 50 mg/kg), 4 days, FIG. 2.

A value given as a limit tells only on which side of the number the result lay.

The IC50 is the midpoint of a concentration-inhibition curve. A word on the Papp A→B: it is how fast a substance crosses the layer from the apical side. Low readings indicate poor permeation, high ones ready permeation.

T1 sequence (P19634 whole entry): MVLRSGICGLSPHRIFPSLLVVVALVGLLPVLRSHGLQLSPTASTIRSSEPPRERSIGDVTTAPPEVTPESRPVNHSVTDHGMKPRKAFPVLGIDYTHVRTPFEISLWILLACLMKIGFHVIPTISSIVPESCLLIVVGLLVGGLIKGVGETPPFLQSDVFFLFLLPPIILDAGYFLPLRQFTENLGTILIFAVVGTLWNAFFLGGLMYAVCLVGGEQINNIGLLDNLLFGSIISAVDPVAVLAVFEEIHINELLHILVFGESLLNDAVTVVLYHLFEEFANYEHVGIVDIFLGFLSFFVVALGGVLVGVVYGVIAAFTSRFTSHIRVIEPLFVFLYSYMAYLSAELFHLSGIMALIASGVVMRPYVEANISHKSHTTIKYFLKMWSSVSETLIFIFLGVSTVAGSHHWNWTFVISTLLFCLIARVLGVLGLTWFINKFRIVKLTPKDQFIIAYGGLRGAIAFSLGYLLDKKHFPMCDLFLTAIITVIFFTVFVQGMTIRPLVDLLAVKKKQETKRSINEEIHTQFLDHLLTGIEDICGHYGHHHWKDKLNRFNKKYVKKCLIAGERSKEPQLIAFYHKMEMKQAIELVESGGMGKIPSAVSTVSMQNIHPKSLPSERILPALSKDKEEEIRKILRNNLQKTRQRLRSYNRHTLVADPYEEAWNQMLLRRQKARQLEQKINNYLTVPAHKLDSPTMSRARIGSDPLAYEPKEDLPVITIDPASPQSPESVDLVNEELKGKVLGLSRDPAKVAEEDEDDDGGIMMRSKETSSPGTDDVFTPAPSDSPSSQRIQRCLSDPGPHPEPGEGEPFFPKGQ

Consider `C/C(=C\c1ccccc1-c1ccc(O)c(F)c1)C(=O)NC(=N)N` [Example 24, N-[(E)-3-(3′-fluoro-4′-hydroxy-biphenyl-2-yl)-2-methyl-acryloyl]-guanidine], for which the IC50 on NHE1 was determined as 1200 nM; at human NHE3 [1], 470 nM; on human NHE3 [2], 210 nM.
Regarding `CC(=O)c1cccc(-c2ccccc2/C=C(\C)C(=O)NC(=N)N)c1` [Example 15, N-[(E)-3-(3′-acetyl-biphenyl-2-yl)-2-methyl-acryloyl]guanidine], the concentration for half-maximal inhibition (IC50) on NHE1 came to 1200 nM; at human NHE3 [1], 610 nM; at human NHE3 [2], 360 nM. The apical-to-basolateral permeability (Papp A→B) at 1 h, 50 μM in data set [3] stood at 1 ×10⁻⁶ cm/s.
For `COC(=O)c1ccc(-c2ccccc2/C=C(\C)C(=O)NC(=N)N)cc1` [Example 7, (E)-2′-(3-guanidino-2-methyl-3-oxo-propenyl)-biphenyl-4-carboxylic acid methyl ester], on human NHE3 [1], the IC50 was over 10000 nM. In data set [3], this molecule displayed a Papp A→B at 1 h, 50 μM of 2 ×10⁻⁶ cm/s. Besides, in data set [4] (20 mg/kg and 50 mg/kg via gavage once daily for 4 days, OA-BSA i.p., unilaterally nephrectomized rats, FIG. 1), the “tubular damages (beta 2-microglobulin, marker for tubular damage)” value is recorded as “Significant improvements in tubular damages”. In data set [4] (test compound administered groups (20 and 50 mg/kg), 4 days, FIG. 3), the tubular damage scores result is reported as “Reductions in tubular damage scores”. Moreover, in data set [4] (setting [5]), the “appearances of urinary cast (renal pathological images)” value is recorded as “significant reductions in appearances of urinary cast” and the “dilation of proximal renal tubules (renal pathological images)” value is given as “improvements in dilation of proximal renal tubules”.
Regarding `C/C(=C\c1ccccc1-c1cc(C)c(O)c(C)c1)C(=O)NC(=N)N` [Example 22, N-[(E)-3-(3′,5′-dimethyl-4′-hydroxy-biphenyl-2-yl)-2-methyl-acryloyl]-guanidine], the IC50 on NHE1 worked out at 3100 nM; on human NHE3 [1], 230 nM; at human NHE3 [2] it was 230 nM.
As for `C/C(=C\c1ccccc1-c1ccc(O)c(O)c1)C(=O)NC(=N)N` [Example 26, N-[(E)-3-(3′,4′-dihydroxy-biphenyl-2-yl)-2-methyl-acryloyl]-guanidine], the IC50 was 500 nM on NHE1, 230 nM at human NHE3 [1] and 230 nM on human NHE3 [2].
For `C/C(=C\c1ccc(C)cc1-c1ccc(O)cc1)C(=O)NC(=N)N` [Example 47, N-[(E)-3-(4′-hydroxy-5-methyl-biphenyl-2-yl)-2-methyl-acryloyl]-guanidine], the IC50 on NHE1 amounted to 1600 nM; at human NHE3 [1], 190 nM; on human NHE3 [2], 60 nM.
For `C/C(=C\c1ccc(C)cc1-c1cccc(O)c1)C(=O)NC(=N)N` [Example 37, N-[(E)-3-(3′-hydroxy-5-methyl-biphenyl-2-yl)-2-methyl-acryloyl]-guanidine], in that order: 1600 nM, 180 nM and 38 nM.
